The text below walks through data of US12344578B2, “Salt forms of bempedoic acid and methods for using the same” (Esperion Therapeutics, Inc., priority 2019, dated 2025).

A short description of the series: Thermogravimetric analysis (TGA), weight loss on heating. The series is classed as physicochemical. As for the experimental part:
Thermogravimetric analysis (TGA) data for the crystalline form of the compound of formula (V) were collected using a TA Discovery 550 TGA instrument. The TGA instrument was calibrated using a nickel reference standard. Samples of the crystalline form of the compound of formula (V) were placed in open platinum sample pans and heated at a rate of 10° C./minute from about ambient temperature (˜25° C.) to about 315° C.
TGA data were collected using a TA Discovery 550 TGA instrument. The TGA instrument was calibrated using a nickel reference standard. Samples were placed in open platinum sample pans and heated at a rate of 10° C./minute from about ambient temperature (˜25° C.) to about 315° C.

As for `CC(C)(CCCCCC(O)CCCCCC(C)(C)C(=O)O)C(=O)O` [8-hydroxy-2,2,14,14-tetramethylpentadecanedioic acid], the “TGA weight loss prior to decomposition” value (heated at 10° C./minute from ~25° C. to about 315° C.) was “negligible weight loss”. The compound `CC(C)(CCCCCC(O)CCCCCC(C)(C)C(=O)[O-])C(=O)[O-].[Ca+2]` [Crystalline Form B of the calcium salt] displayed a TGA weight loss (up to 86.9° C.) of 2.23%. Regarding `CC(C)(CCCCCC(O)CCCCCC(C)(C)C(=O)[O-])C(=O)[O-].[Ca+2]` [Crystalline Form A of the calcium salt], the TGA weight loss entry (up to 62.8° C.) was “Negligible weight loss”.
